Patent US8604229B2, “Lipoxin analogs and methods for the treatment of periodontal disease” (University of Southern California, priority 2000, dated 2013)

Tests used:
PGE2 production = experiment: PGE2 levels in air pouch exudates (EIA) after P. gingivalis; format: in vivo, BALB/c mice
Method: (§1) Six to eight week old male BALB/c mice were obtained from Taconic Farms (Germantown, N.Y.). Air pouches were raised on the dorsum by s.c. injection of 3 ml of sterile air on day 0 and day 3, and all experiments were carried out on day 6 (Sin, Y. M., et al. (1986) Ann. Rheum. Dis. 45, 873). Individual air pouches (one per mouse) were injected with either vehicle alone (0.1% ethanol), with 10 μg 15-R/S-methyl-LXA4-me or with 10 μg 15-epi-16-phenoxy-LXA4-me, followed by 500 μl of sterile PBS or ˜10^5 cells of P. gingivalis strain A7436 (OD600 0.9-1.0) originally obtained from the CF of a patient diagnosed with periodontitis. Mice were sacrificed 4 hr post-injection and individual air pouches were lavaged three times with sterile PBS (3 ml for each lavage) (Sin, Y. M. et al. (1986) Ann. Rheum. Dis. 45, 873; Hachicha, M., et al. (1999) J. Exp. Med. 189, 1923). […] Air pouch exudates were assessed for PGE2 using an enzyme immunoassay (EIA) kit (Cayman Chemical Co., Ann Arbor, Mich. [cross-reactivities in the PGE2 EIA kit were <0.04% for 6-keto PGF1α and <0.01% for LTB4, thromboxane B2 and arachidonic acid]). […]
Since PGE2 is associated with loss of attachment and bone loss in periodontal disease (Offenbacher, S., et al. (1992) J. Periodontal Res. 27, 207), we determined PGE2 levels in the air pouch exudates. […] Also, the expression of COX-2 was evaluated in exudate leukocytes. […]

COX-2 mRNA = experiment: COX-2 expression in air pouch exudate leukocytes (northern blot); format: in vivo, BALB/c mice; conditions: within the air pouch, P. gingivalis-injected mice
Method: as §1
Since PGE2 is associated with loss of attachment and bone loss in periodontal disease (Offenbacher, S., et al. (1992) J. Periodontal Res. 27, 207), we determined PGE2 levels in the air pouch exudates. […]

What does the source list for `CCCCCC(C)(O)/C=C/C=C\C=C\C=C\[C@@H](O)[C@@H](O)CCCC(=O)O` (stereo partly drawn) [15-R/S-methyl LXA4]?
decrease of PGE2 levels in the exudates (PGE2 production; 10 μg/pouch, P. gingivalis-injected murine air pouch, 4 hr): ≤ 75%; P. gingivalis-induced PGE2 production in murine air pouch (in words) (PGE2 production; murine air pouch exudates): inhibits; overall expression of COX-2 in exudates (COX-2 mRNA): decreased
